# Experimental data published in the C3SDB collision cross section collection.
# “And” between values parts separate entries of the source, which are not always exact repeats. Equal values may be shown once.
# Key:
# [1] = instrument: DT, stepped-field
# [2] = [M+H]+; instrument: DT; single field, calibrated with Agilent tune mix (Agilent)
Compound,collision cross section (N2) ([1]; [M+Na]+) [Å²],other results
CC/C=C\C/C=C\C/C=C\C/C=C\C/C=C\CCCC(=O)O[C@H](COC(=O)CCCCCCCCC/C=C\C/C=C\CCCCC)COP(=O)(O)OCCN [PE(40:7)],290.8,
CC/C=C\C/C=C\C/C=C\C/C=C\CCCCC(=O)O[C@H](COCCCCCCCCCCCCCCCC)COP(=O)(O)OCCN [PE(o34:4)],275.9,
CCCCC/C=C\C/C=C\C/C=C\C/C=C\CCCC(=O)O[C@H](COC(=O)CCCCCCCCCCCCCCC)COP(=O)(O)OC[C@H](N)C(=O)O [PS(36:4)],287.8,
CCCCCCC/C=C\CCCCCCCC(=O)O[C@H](COC(=O)CCCCCCCCC/C=C\CCCCCCCC)COP(=O)(O)OC[C@H](N)C(=O)O [PS(37:2)],,collision cross section (N2) ([1]; [M+K]+): 293 Å²
CC/C=C\C/C=C\C/C=C\C/C=C\C/C=C\C/C=C\CCC(=O)OC[C@H](COP(=O)(O)OC[C@H](N)C(=O)O)OC(=O)CCCCCCC/C=C\CCCCCCC [PS(39:7)],293.1,
CC/C=C\C/C=C\C/C=C\C/C=C\C/C=C\C/C=C\CCC(=O)OC[C@H](COP(=O)(O)OC[C@H](N)C(=O)O)OC(=O)CCCCCCC/C=C\CCCCCCCCC [PS(41:7)],299.2,
CC/C=C\C/C=C\C/C=C\C/C=C\C/C=C\CCCC(=O)OC[C@H](COP(=O)(O)OC[C@H](N)C(=O)O)OC(=O)CCCCCCCCCCC/C=C\C/C=C\CCCCC [PS(42:7)],304.7,
CCC=CCC=CCC=CCC=CCC=CCC=CCC(=O)OC[C@H](COP(=O)(O)OC[C@H](N)C(=O)O)OC(=O)CC=CCC=CCC=CCC=CCC=CCC=CCC [PS(42:12)],293.7,
CCCCC/C=C\C/C=C\C/C=C\C/C=C\CCCCCC(=O)O[C@H](COC(=O)CCCCCCCCC/C=C\CCCCCCCCCC)COP(=O)(O)OC[C@H](N)C(=O)O [PS(44:5)],311.5,
CC/C=C\C/C=C\C/C=C\C/C=C\C/C=C\C/C=C\CCC(=O)OC[C@H](COP(=O)(O)OC[C@H](N)C(=O)O)OC(=O)CCCCCCCCC/C=C\CCCCCCCCCC [PS(44:7)],311.8,
CCCCC/C=C\C/C=C\C/C=C\C/C=C\CCCCCC(=O)OC[C@H](COP(=O)(O)OC[C@H](N)C(=O)O)OC(=O)CCCCC/C=C\C/C=C\C/C=C\C/C=C\CCCCC [PS(44:8)],306.8,
CC/C=C\C/C=C\C/C=C\C/C=C\C/C=C\C/C=C\CCC(=O)OC[C@H](COP(=O)(O)OC[C@H](N)C(=O)O)OC(=O)CC/C=C\C/C=C\C/C=C\C/C=C\C/C=C\C/C=C\CC [PS(44:12)],299.7,
CCCCCCCCCCC=CCC=CCC=CCC=CCC(=O)OC[C@H](COP(=O)(O)OC[C@H](N)C(=O)O)OC(=O)CC=CCC=CCC=CCC=CCCCCCCCCCC [PS(46:8)],313.2,
OC[C@H]1OC(OC[C@H]2OC(O[C@]3(CO)O[C@H](CO)[C@@H](O)[C@@H]3O)[C@H](O)[C@@H](O)[C@@H]2O)[C@H](O)[C@@H](O)[C@H]1O (some centres not stated) [Raffinose],210.7,collision cross section (N2) ([1]; [M+K]+): 212.7 Å²; collision cross section (N2) ([1]; [M+Rb]+): 218.7 Å² and 229.7 Å²
CCCCCCCCCCCCC=CC[C@@H](O)[C@H](COP(=O)([O-])OCC[N+](C)(C)C)NC(=O)CCCCCCCCCCCCCCCCCC [SM(37:1)],294.8,collision cross section (N2) [2]: 290.8 Å²
CCCCCCCCCCCCC=CC[C@@H](O)[C@H](COP(=O)([O-])OCC[N+](C)(C)C)NC(=O)CCCCCCCCCCCCCCCCCCCC [SM(39:1)],301.6,collision cross section (N2) [2]: 297.4 Å²
CCCCCCCCCCCCC=CC[C@@H](O)[C@H](COP(=O)([O-])OCC[N+](C)(C)C)NC(=O)CC=CCC=CCCCCCCCCCCCCCCC [SM(40:3)],299.9,collision cross section (N2) [2]: 294.6 Å²
CCCCCCCCCCCCC=CC[C@@H](O)[C@H](COP(=O)([O-])OCC[N+](C)(C)C)NC(=O)CCCCCCCCCCCCCCCCCCCCCCCCC [SM(44:1)],315.1,
CCCCCCCCCCCCC=CC[C@@H](O)[C@H](COP(=O)([O-])OCC[N+](C)(C)C)NC(=O)CC=CCC=CCCCCCCCCCCCCCCCCCCC [SM(44:3)],312,
CCCCCC[N+](CCCCCC)(CCCCCC)CCCCCC [TAA6],,collision cross section (N2) ([1]; [M]+): 213.5 Å²
CCCCCCCC[N+](CCCCCCCC)(CCCCCCCC)CCCCCCCC [TAA8],,collision cross section (N2) ([1]; [M]+): 256.6 Å²
CCCCCCCCCC[N+](CCCCCCCCCC)(CCCCCCCCCC)CCCCCCCCCC [TAA10],,collision cross section (N2) ([1]; [M]+): 293.5 Å²
CCCCCCCCCCCCCCCC[N+](CCCCCCCCCCCCCCCC)(CCCCCCCCCCCCCCCC)CCCCCCCCCCCCCCCC [TAA16],,collision cross section (N2) ([1]; [M]+): 361.5 Å²
CC(C)[C@H](N)C(=O)N[C@@H](Cc1ccccc1)C(=O)N[C@@H](C)C(=O)N[C@@H](CC(=O)O)C(=O)N[C@@H](Cc1ccc(O)cc1)C(=O)N[C@@H](CCC(=O)O)C(=O)N[C@@H](CCC(=O)O)C(=O)N[C@@H](Cc1ccc(O)cc1)C(=O)N[C@H](C(=O)N[C@@H](CCCCN)C(=O)O)C(C)C [VFADYEEYVK],,collision cross section (N2) ([1]; [M+H]+): 366.4 Å²
CCC(C)[C@H](NC(=O)[C@@H](N)C(C)C)C(=O)N[C@@H](Cc1ccccc1)C(=O)N[C@@H](CC(C)C)C(=O)N[C@@H](CCC(=O)O)C(=O)N[C@@H](CC(N)=O)C(=O)N[C@@H](Cc1ccc(O)cc1)C(=O)N[C@@H](CCCNC(=N)N)C(=O)O (some centres not stated) [VIFLENYR],,collision cross section (N2) ([1]; [M+H]+): 318.3 Å²
CC(C)C[C@H](NC(=O)[C@H](C)NC(=O)[C@H](CO)NC(=O)[C@@H](N)C(C)C)C(=O)N[C@@H](Cc1ccc(O)cc1)C(=O)N[C@@H](CCCCN)C(=O)O [VSALYK],,collision cross section (N2) ([1]; [M+H]+): 261.8 Å² and 254 Å²
CC(C)C[C@H](NC(=O)[C@H](CO)NC(=O)[C@@H](N)C(C)C)C(=O)N[C@@H](C)C(=O)N[C@@H](CCC(=O)O)C(=O)N[C@@H](CCCCN)C(=O)O [VSLAEK],,collision cross section (N2) ([1]; [M+H]+): 249 Å²
